{"source": "patent US10774064B2", "about": "(Cadent Therapeutics, Inc., priority 2016, dated 2020)", "data": [{"molecular_target": "T1, small-conductance Ca2+-activated K+ channels (SK channels, subtype 2) (Homo sapiens, UniProt Q9H2S1)", "T1 construct": "expressed in transfected cells; host or cells: HEK293", "assay": "whole-cell patch-clamp of ionic current through SK2 channels in HEK293 cells (SC100)", "type": "cell-based", "settings": "concentration that increases the basal current by 100%; HEK293 cells expressing SK2 channels", "outline": "(§1)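 Whole-cell patch-clamp recording of current in HEK293 cells expressing SK2 channels. SC100 is the compound concentration that increases basal current by 100%.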", "values": [{"smiles": "Cc1cc(C)n(-c2cc(NCc3cnn(C)n3)cc(NC3CCC(F)(F)CC3)n2)n1", "note": "[Compound 248, N2-(4,4-difluorocyclohexyl)-6-(3,5-dimethyl-1H-pyrazol-1-yl)-N4-((2-methyl-2H-1,2,3-triazol-4-yl)methyl)pyridine-2,4-diamine]", "SC100": "++ (++ means 200 nM-1000 nM)"}, {"smiles": "COC(=O)N1CC(Oc2cc(NC3CCC(F)(F)CC3)nc(-n3cc(C)c(CF)n3)n2)C1", "note": "[Compound 310, methyl 3-((6-((4,4-difluorocyclohexyl)amino)-2-(3-(fluoromethyl)-4-methyl-1H-pyrazol-1-yl)pyrimidin-4-yl)oxy)azetidine-1-carboxylate]", "SC100": "++ (++ means 200 nM-1000 nM)"}, {"smiles": "Cc1cc(NC2CCC(F)(F)CC2)nc(-n2cc(C)c(C#N)n2)n1", "note": "[Compound 253, 1-(4-((4,4-difluorocyclohexyl)amino)-6-methylpyrimidin-2-yl)-4-methyl-1H-pyrazole-3-carbonitrile]", "SC100": "++ (++ means 200 nM-1000 nM)"}, {"smiles": "Cc1cc(C)n(-c2nc3c(c(NC4CCC(F)(F)CC4)n2)CCN(CCO)C3)n1", "note": "[Compound 118, 2-(4-((4,4-difluorocyclohexyl)amino)-2-(3,5-dimethyl-1H-pyrazol-1-yl)-5,8-dihydropyrido[3,4-d]pyrimidin-7(6H)-yl)ethan-1-ol]", "SC100": "+ (+ means >1 uM)"}, {"smiles": "Cn1cnc2c(NC3CCC(F)(F)CC3)nc(-n3ccc(CF)n3)cc21", "note": "[Compound 286, N-(4,4-difluorocyclohexyl)-6-(3-(fluoromethyl)-1H-pyrazol-1-yl)-1-methyl-1H-imidazo[4,5-c]pyridin-4-amine]", "SC100": "+++ (+++ means <200 nM)"}, {"smiles": "COC(=O)N1CC(Oc2cc(NC3CCC(F)(F)CC3)nc(-n3ccc(CF)n3)n2)C1", "note": "[Compound 291, methyl 3-((6-((4,4-difluorocyclohexyl)amino)-2-(3-(fluoromethyl)-1H-pyrazol-1-yl)pyrimidin-4-yl)oxy)azetidine-1-carboxylate]", "SC100": "++ (++ means 200 nM-1000 nM)"}, {"smiles": "Cc1cc(NC2CCC(F)(F)CC2)nc(-n2nc(Br)cc2C)n1", "note": "[Compound 220, 2-(3-bromo-5-methyl-1H-pyrazol-1-yl)-N-(4,4-difluorocyclohexyl)-6-methylpyrimidin-4-amine]", "SC100": "++ (++ means 200 nM-1000 nM)"}, {"smiles": "O=C(N1CC(Oc2cc(NC3CCC(F)(F)CC3)nc(-c3nc(C(F)(F)F)cs3)n2)C1)C(F)(F)F", "note": "[Compound 323, 1-(3-((6-((4,4-difluorocyclohexyl)amino)-2-(4-(trifluoromethyl)thiazol-2-yl)pyrimidin-4-yl)oxy)azetidin-1-yl)-2,2,2-trifluoroethan-1-one]", "SC100": "++ (++ means 200 nM-1000 nM)"}, {"smiles": "COC(=O)N1CCC1COc1cc(NC2CCC(F)(F)CC2)nc(-n2ccc(CF)n2)n1", "note": "(centres unmarked) [Compound 306, methyl 2-(((6-((4,4-difluorocyclohexyl)amino)-2-(3-(fluoromethyl)-1H-pyrazol-1-yl)pyrimidin-4-yl)oxy)methyl)azetidine-1-carboxylate]", "SC100": "+ (+ means >1 uM)"}, {"smiles": "CC(=O)N1CCN(c2cc(NC3CCC(F)(F)C3)nc(-n3nc(C)cc3C)n2)CC1", "note": "(centres unmarked) [Compound 130, 1-(4-(6-((3,3-difluorocyclopentyl)amino)-2-(3,5-dimethyl-1H-pyrazol-1-yl)pyrimidin-4-yl)piperazin-1-yl)ethan-1-one]", "SC100": "+ (+ means >1 uM)"}, {"smiles": "FC1(F)CCC(Nc2cc(N3CCOCC3)nc(-n3ccc(C4CC4)n3)n2)CC1", "note": "[Compound 365, 2-(3-cyclopropyl-1H-pyrazol-1-yl)-N-(4,4-difluorocyclohexyl)-6-morpholinopyrimidin-4-amine]", "SC100": "++ (++ means 200 nM-1000 nM)"}, {"smiles": "COc1cc(NC2CCC(F)(F)CC2)nc(-n2nc(C)cc2C)n1", "note": "[Compound 360, N-(4,4-difluorocyclohexyl)-2-(3,5-dimethyl-1H-pyrazol-1-yl)-6-methoxypyrimidin-4-amine]", "SC100": "++ (++ means 200 nM-1000 nM)"}, {"smiles": "Cc1cc(C)n(-c2nccc(NC3CCC(F)(F)CC3)n2)n1", "note": "[Compound 163, N-(4,4-difluorocyclohexyl)-2-(3,5-dimethyl-1H-pyrazol-1-yl)pyrimidin-4-amine]", "SC100": "+ (+ means >1 uM)"}]}, {"molecular_target": "T1, small-conductance Ca2+-activated K+ channels (SK channels, subtype 2)", "assay": "whole-cell patch-clamp of ionic current through SK2 channels in HEK293 cells (SC100)", "type": "cell-based", "settings": "whole-cell patch-clamp, HEK293 cells expressing SK2 channels; concentration that increases the basal current by 100%", "outline": "as §1", "values": [{"smiles": "Cc1csc(-c2nc(NC3CCC(F)(F)CC3)cc(N3CCN(C)C(CO)C3)n2)n1", "note": "(centres unmarked) [IN10864-066-P1]", "SC100 (μM)": "++ (++ means 200 nM-1000 nM)"}, {"smiles": "Cc1ccn(-c2nc(NC3CC4CCC3O4)cc(N3CCOCC3)n2)n1", "note": "(centres unmarked) [NSSy6420]", "SC100 (μM)": "+ (+ means >1 uM)"}, {"smiles": "Cc1csc(-c2nc(NC3CCCCC3(F)F)cc(C(C)F)n2)n1", "note": "(centres unmarked) [IN11140-089-P1, N-(2,2-difluorocyclohexyl)-6-(1-fluoroethyl)-2-(4-methylthiazol-2-yl)pyrimidin-4-amine]", "SC100 (μM)": "+ (+ means >1 uM)"}, {"smiles": "Cc1csc(-c2nc(NC3CCC(F)(F)CC3)cc(OC3CCOC3)n2)n1", "note": "(centres unmarked) [IN11079-014-P1]", "SC100 (μM)": "+ (+ means >1 uM)"}, {"smiles": "Cc1ccn(-c2nc(NC3CCC(F)(F)CC3)cc(C(C)S(C)(=O)=O)n2)n1", "note": "(centres unmarked) [IN10973-060-P1, N-(4,4-difluorocyclohexyl)-2-(3-methyl-1H-pyrazol-1-yl)-6-(1-(methylsulfonyl)ethyl)pyrimidin-4-amine]", "SC100 (μM)": "+ (+ means >1 uM)"}, {"smiles": "Cc1csc(-c2cc(NC(=O)OC(C)(C)C)cc(NC3CCC(F)(F)CC3)n2)n1", "note": "[IN11083-048-P1, tert-butyl (2-((4,4-difluorocyclohexyl)amino)-6-(4-methylthiazol-2-yl)pyridin-4-yl) carbamate]", "SC100 (μM)": "+++ (+++ means <200 nM)"}, {"smiles": "COc1cc(NC2CCC(C)(C)CC2)nc(-n2ccc(C)n2)n1", "note": "[IN11055-078-P1, N-(4,4-dimethylcyclohexyl)-6-methoxy-2-(3-methyl-1H-pyrazol-1-yl)pyrimidin-4-amine]", "SC100 (μM)": "+ (+ means >1 uM)"}, {"smiles": "CC(=O)N1CCN(c2cc(NC3CCC(F)(F)CC3)nc(-c3nc(C)cs3)n2)CC1", "note": "[NSSy6055]", "SC100 (μM)": "+++ (+++ means <200 nM)"}, {"smiles": "COC(=O)N1CC(Oc2cc(NC3CCCCC3)nc(-c3csc(C)n3)n2)C1", "note": "[NSSy6133]", "SC100 (μM)": "+ (+ means >1 uM)"}, {"smiles": "Cc1ccn(-c2nc(NC3CCC(F)(F)CC3)cc(OC3CC(F)(F)C3)n2)n1", "note": "[NSSy5893, 6-(3,3-difluorocyclobutoxy)-N-(4,4-difluorocyclohexyl)-2-(3-methyl-1H-pyrazol-1-yl)pyrimidin-4-amine]", "SC100 (μM)": "++ (++ means 200 nM-1000 nM)"}, {"smiles": "Cc1cc(NC2CCC(F)(F)CC2)nc(-n2ccc(OCc3ccccc3)n2)n1", "note": "[IN11079-066-P1, 2-(3-(benzyloxy)-1H-pyrazol-1-yl)-N-(4,4-difluorocyclohexyl)-6-methyl pyrimidin-4-amine]", "SC100 (μM)": "+ (+ means >1 uM)"}, {"smiles": "Cc1cc(NC2CCC(F)(F)CC2)nc(-n2ccc(-c3ccccc3)n2)n1", "note": "[NSSy7028]", "SC100 (μM)": "+ (+ means >1 uM)"}, {"smiles": "COc1cc(NC2CCCCC2OC)nc(-c2nc(C)cs2)n1", "note": "(centres unmarked) [IN11140-090-P1, 6-methoxy-N-(2-methoxycyclohexyl)-2-(4-methylthiazol-2-yl)pyrimidin-4-amine]", "SC100 (μM)": "+ (+ means >1 uM)"}, {"smiles": "Cc1csc(-c2nc(N[C@@H]3CCCC[C@H]3F)cc(N3CCOCC3)n2)n1", "note": "[IN11140-086-P1]", "SC100 (μM)": "+ (+ means >1 uM)"}, {"smiles": "COC[C@@H]1CN(c2cc(NC3CCCCC3)nc(-c3nc(C)cs3)n2)CCO1", "note": "[NSSy6124]", "SC100 (μM)": "++ (++ means 200 nM-1000 nM)"}, {"smiles": "Cc1cc(NC2CCC(F)(F)CC2)nc(-n2[nH]c(=O)cc2N)n1", "note": "[IN11140-007-P1, 5-amino-1-(4-((4,4-difluorocyclohexyl)amino)-6-methylpyrimidin-2-yl)-1,2-dihydro-3H-pyrazol-3-one]", "SC100 (μM)": "+ (+ means >1 uM)"}, {"smiles": "Cc1ccn(-c2nc(NC3CCC(F)(F)CC3)cc(C(C)F)n2)n1", "note": "(centres unmarked) [IN10876-080-P1, N-(4,4-difluorocyclohexyl)-6-(1-fluoroethyl)-2-(3-methyl-1H-pyrazol-1-yl)pyrimidin-4-amine]", "SC100 (μM)": "+ (+ means >1 uM)"}, {"smiles": "COCc1cc(NC2CCC(F)(F)CC2)nc(-n2ccc(C(F)(F)F)n2)n1", "note": "[IN11053-071-P1, N-(4,4-difluorocyclohexyl)-6-(methoxymethyl)-2-(3-(trifluoromethyl)-1H-pyrazol-1-yl)pyrimidin-4-amine]", "SC100 (μM)": "+ (+ means >1 uM)"}, {"smiles": "COC(C)c1cc(-n2ccc(C(F)(F)F)n2)nc(NC2CCC(F)(F)CC2)n1", "note": "(centres unmarked) [NSSy6613]", "SC100 (μM)": "+ (+ means >1 uM)"}, {"smiles": "COc1nn(-c2nc(NC3CCC(F)(F)CC3)cc(N3CCOCC3)n2)cc1F", "note": "[IN11216-073-P1]", "SC100 (μM)": "+++ (+++ means <200 nM)"}, {"smiles": "CC(=O)N1CCN(c2cc(-n3ccc(C)n3)nc(NC3CCC(F)(F)CC3)n2)CC1", "note": "[NSSy6629, 1-(4-(2-((4,4-difluorocyclohexyl)amino)-6-(3-methyl-1H-pyrazol-1-yl)pyrimidin-4-yl)piperazin-1-yl)ethan-1-one]", "SC100 (μM)": "++ (++ means 200 nM-1000 nM)"}, {"smiles": "COc1cc(NC2CCC(F)(F)CC2)nc(-n2nc(C)c(F)c2C)n1", "note": "[NSSy7062]", "SC100 (μM)": "++ (++ means 200 nM-1000 nM)"}, {"smiles": "COC(=O)N1CC(Oc2cc(NC3C4CC5CC(C4)CC3C5)nc(-n3ccc(C)n3)n2)C1", "note": "(centres unmarked) [NSSy6091]", "SC100 (μM)": "++ (++ means 200 nM-1000 nM)"}, {"smiles": "COCc1cc(NC2CCC(F)(F)CC2)nc(-n2ccc(C)n2)n1", "note": "[IN11053-007-P1, N-(4,4-difluorocyclohexyl)-6-(methoxymethyl)-2-(3-methyl-1H-pyrazol-1-yl)pyrimidin-4-amine]", "SC100 (μM)": "+ (+ means >1 uM)"}, {"smiles": "Cc1ccn(-c2cc(CN)cc(NC3CCC(F)(F)CC3)n2)n1", "note": "[IN10967-063-P1, 4-(aminomethyl)-N-(4,4-difluorocyclohexyl)-6-(3-methyl-1H-pyrazol-1-yl)pyridin-2-amine]", "SC100 (μM)": "++ (++ means 200 nM-1000 nM)"}, {"smiles": "Cc1csc(-c2nc(NC3CCCCC3(F)F)cc(N3CCOCC3)n2)n1", "note": "(centres unmarked) [IN11140-066-P1]", "SC100 (μM)": "+ (+ means >1 uM)"}, {"smiles": "CC(=O)N1CCN(c2cc(-n3ccc(O)n3)nc(NC3CCC(F)(F)CC3)n2)CC1", "note": "[NSSy6972, 1-(4-(2-((4,4-difluorocyclohexyl)amino)-6-(3-hydroxy-1H-pyrazol-1-yl)pyrimidin-4-yl)piperazin-1-yl) ethan-1-one]", "SC100 (μM)": "+ (+ means >1 uM)"}, {"smiles": "Cc1ccn(-c2nc(NC3CC(F)(F)C3)cc(N3CCOCC3)n2)n1", "note": "[IN11107-020-P1]", "SC100 (μM)": "+ (+ means >1 uM)"}]}]}
